This experiment deals with T1, human V1a receptor (Homo sapiens, UniProt P37288).
T1 construct: expressed in transfected cells; host or cells: HEK293 cells, transiently transfected; cell membranes
T1 sequence (P37288 whole entry): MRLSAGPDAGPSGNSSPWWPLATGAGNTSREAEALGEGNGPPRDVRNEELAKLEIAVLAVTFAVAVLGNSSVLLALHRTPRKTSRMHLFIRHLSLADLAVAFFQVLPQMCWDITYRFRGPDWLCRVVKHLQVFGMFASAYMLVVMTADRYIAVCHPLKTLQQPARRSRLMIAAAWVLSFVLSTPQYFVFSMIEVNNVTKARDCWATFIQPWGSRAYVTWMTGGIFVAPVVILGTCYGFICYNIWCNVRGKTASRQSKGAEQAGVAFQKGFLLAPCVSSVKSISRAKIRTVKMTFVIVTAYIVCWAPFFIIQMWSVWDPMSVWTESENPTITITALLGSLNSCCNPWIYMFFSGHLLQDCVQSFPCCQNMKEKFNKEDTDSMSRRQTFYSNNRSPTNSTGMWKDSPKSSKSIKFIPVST
Briefly: human V1a receptor binding studies (3H-Vasopressin, SPA beads). As to conditions: membranes of HEK293 cells transiently transfected with human V1a receptor, Ki by Cheng-Prussoff from IC50, read-out: pKi hV1a (converted). As for the experimental part:
The human V1a receptor was cloned by RT-PCR from total human liver RNA. The coding sequence was subcloned in an expression vector after sequencing to confirm the identity of the amplified sequence. […] Cell membranes were prepared from HEK293 cells transiently transfected with the expression vector and grown in 20 liter fermenters with the following protocol.
50 g of cells are re-suspended in 30 ml freshly prepared ice cold Lysis buffer (50 mM HEPES, 1 mM EDTA, 10 mM MgCl2 adjusted to pH=7.4+complete cocktail of protease inhibitor (Roche Diagnostics)). Homogenized with Polytron for 1 min and sonicated on ice for 2×2 minutes at 80% intensity (Vibracell sonicator). The preparation is centrifuged 20 min at 500 g at 4° C., the pellet is discarded and the supernatant centrifuged 1 hour at 43′000 g at 4° C. (19′000 rpm). The pellet is re-suspended in 12.5 ml Lysis buffer+12.5 ml Sucrose 20% and homogenized using a Polytron for 1-2 min. The protein concentration is determined by the Bradford method and aliquots are stored at −80° C. until use. For binding studies 60 mg Yttrium silicate SPA beads (Amersham) are mixed with an aliquot of membrane in binding buffer (50 mM Tris, 120 mM NaCl, 5 mM KCl, 2 mM CaCl2, 10 mM MgCl2) for 15 minutes with mixing. 50 μl of bead/membrane mixture is then added to each well of a 96 well plate, followed by 50 μl of 4 nM 3H-Vasopressin (American Radiolabeled Chemicals). For total binding measurement 100 μl of binding buffer are added to the respective wells, for non-specific binding 100 μl of […] cold vasopressin and for compound testing 100 μl of a serial dilution of each compound in 2% DMSO. The plate is incubated 1 h at room temperature, centrifuged 1 min at 1000 g and counted on a Packard Top-Count. Non-specific binding counts are subtracted from each well and data is normalized to the maximum specific binding set at 100%. To calculate an IC 50 the curve is fitted using a non-linear regression model (XLfit) and the Ki is calculated using the Cheng-Prussoff equation.
With `C=C(C)CC1(CC(=C)C)OC(N2CCC3(CC2)OCc2ccccc23)=NC1=O` [Example 56, 5,5-bis(2-Methylprop-2-en-1-yl)-2-(1′H,3H-spiro[2-benzofuran-1,4′-piperidin]-1′-yl)-1,3-oxazol-4(5H)-one], the Ki was 15.8 nM.
Consider `CC1(CN2CCCC2)OC(N2CCC3(CC2)OCc2ccccc23)=NC1=O` (stereo not drawn) [Example 98, 5-Methyl-5-(pyrrolidin-1-ylmethyl)-2-(1′H,3H-spiro[2-benzofuran-1,4′-piperidin]-1′-yl)-1,3-oxazol-4(5H)-one], for which the Ki was 251 nM.
Consider `CC1(Cc2ccccc2)OC(N2CCC3(CC2)OCc2ccccc23)=NC1=O` (single isomer, unassigned; (+)) [Example 70, (+)-5-Benzyl-5-methyl-2-(1′H,3H-spiro[2-benzofuran-1,4′-piperidin]-1′-yl)-1,3-oxazol-4(5H)-one], for which the Ki is 7.94 nM.
As for `C=CCC1(CC(=C)Br)OC(N2CCC3(CC2)OCc2ccccc23)=NC1=O` (stereo not drawn) [Example 63, 5-(2-Bromoprop-2-en-1-yl)-5-(prop-2-en-1-yl)-2-(1′H,3H-spiro[2-benzofuran-1,4′-piperidin]-1′-yl)-1,3-oxazol-4(5H)-one], the Ki is 12.6 nM.
As to `O=C1N=C(N2CCC3(CC2)OCc2ccccc23)OC12CCCC2` [Example 112, 2-(3H-Spiro[isobenzofuran-1,4′-piperidine]-1′-yl)-1-oxa-3-azaspiro[4.4]non-2-en-4-one], the Ki is 158 nM.
Under `CC(c1ccccc1)C1(C)OC(N2CCC3(CC2)OCc2ccccc23)=NC1=O` (single isomer, unassigned; diastereomer b) [Example 111, (+)-5-Methyl-5-(1-phenylethyl)-2-(1′H,3H-spiro[2-benzofuran-1,4′-piperidin]-1′-yl)-1,3-oxazol-4(5H)-one diastereomer b] stands 251 nM; under `CCCCC1OC(N2CCC3(CC2)OCc2ccccc23)=NC1=O` (stereo not drawn) [Example 2, 5-Butyl-2-(1′H,3H-spiro[2-benzofuran-1,4′-piperidin]-1′-yl)-1,3-oxazol-4(5H)-one], 5.01 nM; under `O=C1OC2(CCN(C3=NC(=O)C(Cc4ccccc4)O3)CC2)c2ccccc21` (single isomer, unassigned; enantiomer b) [Example 21, 1′-[5-Benzyl-4-oxo-4,5-dihydro-1,3-oxazol-2-yl]-3H-spiro[2-benzofuran-1,4′-piperidin]-3-one enantiomer B], 5.01 nM.
Turning to `C=CCC1OC(N2CCC3(CC2)OCc2ccccc23)=NC1=O` (stereo not drawn) [Example 8, 5-(Prop-2-en-1-yl)-2-(1′H,3H-spiro[2-benzofuran-1,4′-piperidin]-1′-yl)-1,3-oxazol-4(5H)-one], the Ki was 158 nM.
`CC(=O)O[C@H]1CC2(C[C@H]1OC(C)=O)OC(N1CCC3(CC1)OCc1ccccc13)=NC2=O` (single isomer, unassigned; diastereomer b) [Example 121, 4-Oxo-2-(1′H,3H-spiro[2-benzofuran-1,4′-piperidin]-1′-yl)-1-oxa-3-azaspiro[4.4]non-2-ene-7,8-diyl diacetate diastereomer b]: the Ki was 6.31 nM.
On to `CO[C@H]1CC2(C[C@H]1OC)OC(N1CCC3(CC1)OCc1ccccc13)=NC2=O` (single isomer, unassigned; diastereomer a) [Example 122, 7,8-Dimethoxy-2-(1′H,3H-spiro[2-benzofuran-1,4′-piperidin]-1′-yl)-1-oxa-3-azaspiro[4.4]non-2-en-4-one diastereomer a], for which the Ki was 200 nM.
Under `O=C1N=C(N2CCC3(CC2)OCc2ccccc23)OC1C(F)c1ccc(Cl)cc1` (single isomer, unassigned) [Example 49, 5-((4-Chlorophenyl)fluoromethyl)-2-(1′H,3H-spiro[2-benzofuran-1,4′-piperidin]-1′-yl)-1,3-oxazol-4(5H)-one diastereomer b, enantiomer B] stands 2 nM.
As to `CC1(Cc2ccccc2)OC(N2CCC3(CC2)OCc2ccccc23)=NC1=O` (single isomer, unassigned; (-)) [Example 71, (−)-5-Benzyl-5-methyl-2-(1′H,3H-spiro[2-benzofuran-1,4′-piperidin]-1′-yl)-1,3-oxazol-4(5H)-one], the Ki is 79.4 nM.
Under `CC1(CC2CCCCC2)OC(N2CCC3(CC2)OCc2ccccc23)=NC1=O` (stereo not drawn) [Example 79, 5-(Cyclohexylmethyl)-5-methyl-2-(1′H,3H-spiro[2-benzofuran-1,4′-piperidin]-1′-yl)-1,3-oxazol-4(5H)-one] stands 20 nM; under `CC1(CC2CCCC2)OC(N2CCC3(CC2)OCc2ccccc23)=NC1=O` (single isomer, unassigned; (+)) [Example 77, (+)-5-(Cyclopentylmethyl)-5-methyl-2-(1′H,3H-spiro[2-benzofuran-1,4′-piperidin]-1′-yl)-1,3-oxazol-4(5H)-one], 2.51 nM.
On to `CC1(Cc2ccc(Cl)s2)OC(N2CCC3(CC2)OCc2ccccc23)=NC1=O` (single isomer, unassigned; (+)) [Example 86, (+)-5-[(5-Chlorothiophen-2-yl)methyl]-5-methyl-2-(1′H,3H-spiro[2-benzofuran-1,4′-piperidin]-1′-yl)-1,3-oxazol-4(5H)-one], for which the Ki is 1.26 nM.
In the case of `CC1(C)OC2(CCN(C3=NC(=O)C(Cc4ccccc4)O3)CC2)c2ccccc21` (stereo not drawn) [Example 26, 5-Benzyl-2-(3,3-dimethyl-1′H,3H-spiro[2-benzofuran-1,4′-piperidin]-1′-yl)-1,3-oxazol-4(5H)-one], the Ki was 0.631 nM.
On to `O=C1N=C(N2CCC3(CC2)OCc2ccccc23)OC1CC1CCCC1` (single isomer, unassigned; enantiomer a) [Example 13, 5-(Cyclopentylmethyl)-2-(1′H,3H-spiro[2-benzofuran-1,4′-piperidin]-1′-yl)-1,3-oxazol-4(5H)-one enantiomer A], for which the Ki is 0.794 nM.
Take `CCOCC1(C)OC(N2CCC3(CC2)OCc2ccccc23)=NC1=O` (single isomer, unassigned; (-)) [Example 97, (−)-5-(Ethoxymethyl)-5-methyl-2-(1′H,3H-spiro[2-benzofuran-1,4′-piperidin]-1′-yl)-1,3-oxazol-4(5H)-one]: the Ki was 1580 nM.
For the compound `C=C(C)CC1OC(N2CCC3(CC2)OCc2ccccc23)=NC1=O` (stereo not drawn) [Example 9, 5-(2-Methylprop-2-en-1-yl)-2-(1′H,3H-spiro[2-benzofuran-1,4′-piperidin]-1′-yl)-1,3-oxazol-4(5H)-one], the Ki was 2 nM.
In the case of `C=CCC1(CC(=C)CO[Si](C)(C)C(C)(C)C)OC(N2CCC3(CC2)OCc2ccccc23)=NC1=O` (stereo not drawn) [Example 65, 5-[2-({[tert-Butyl(dimethyl)silyl]oxy}methyl)prop-2-en-1-yl]-5-(prop-2-en-1-yl)-2-(1′H,3H-spiro[2-benzofuran-1,4′-piperidin]-1′-yl)-1,3-oxazol-4(5H)-one], the Ki is 63.1 nM.
With `CC1=CCC2(C1)OC(N1CCC3(CC1)OCc1ccccc13)=NC2=O` (stereo not drawn) [Example 114, 7-Methyl-2-(1′H,3H-spiro[2-benzofuran-1,4′-piperidin]-1′-yl)-1-oxa-3-azaspiro[4.4]nona-2,7-dien-4-one], the Ki is 12.6 nM.
Under `CC1(CC2CCCOC2)OC(N2CCC3(CC2)OCc2ccccc23)=NC1=O` (single isomer, unassigned; diastereomer b) [Example 105, (−)-5-Methyl-2-(1′H,3H-spiro[2-benzofuran-1,4′-piperidin]-1′-yl)-5-(tetrahydro-2H-pyran-3-ylmethyl)-1,3-oxazol-4(5H)-one diastereomer b] stands 501 nM.
Consider `CC1(Cc2ccc(Cl)cc2)OC(N2CCC3(CC2)OC(=O)c2ccccc23)=NC1=O` (single isomer, unassigned; enantiomer b) [Example 81, 1′-[5-(4-Chlorobenzyl)-5-methyl-4-oxo-4,5-dihydro-1,3-oxazol-2-yl]-3H-spiro[2-benzofuran-1,4′-piperidin]-3-one enantiomer B], for which the Ki was 501 nM.
`CCCCC1OC(N2CCC3(CC2)OCc2ccccc23)=NC1=O` (single isomer, unassigned; (-)) [Example 3, (−)-5-Butyl-2-(1′H,3H-spiro[2-benzofuran-1,4′-piperidin]-1′-yl)-1,3-oxazol-4(5H)-one]: the Ki is 50.1 nM.
As for `CCC1(Cc2ccccc2)OC(N2CCC3(CC2)OCc2ccccc23)=NC1=O` (stereo not drawn) [Example 74, 5-Benzyl-5-ethyl-2-(1′H,3H-spiro[2-benzofuran-1,4′-piperidin]-1′-yl)-1,3-oxazol-4(5H)-one], the Ki is 10 nM.
Take `O=C1N=C(N2CCC3(CC2)OCc2ccccc23)OC1Cc1ccccc1` (stereo not drawn) [Example 17, 5-Benzyl-2-(1′H,3H-spiro[2-benzofuran-1,4′-piperidin]-1′-yl)-1,3-oxazol-4(5H)-one]: the Ki is 3.98 nM.

The values are drawn from US9828385B2, “Spiro-oxazolones” (Hoffmann-La Roche Inc., priority 2014, dated 2017).
